In patent publication US12162840B2, “Herbicidal compositions” (SYNGENTA PARTICIPATIONS AG, priority 2018, dated 2024):

Experiments:
Format in all cases: in vivo
[1] = tested on: warm season plant species; assay: B2 Post-emergence efficacy Test 2, warm season plant species; conditions: 15 days after application, 0-100 scale, 0=no damage, 100=total kill; for Herbicidal activity, ABUTH: Abutilon theophrasti; for Herbicidal activity, AMARE: Amaranthus retroflexus; for Herbicidal activity, BIDPI: Bidens pilosa; for Herbicidal activity, BRAPL: Brachiaria plantaginea; for Herbicidal activity, DIGSA: Digitaria sanguinalis; for Herbicidal activity, ECHCG: Echinochloa crus galli; for Herbicidal activity, ELEIN: Eleisine indica; for Herbicidal activity, EPHHL: Euphorbia hetrophylla; for Herbicidal activity, GLXMA: Glycine max; for Herbicidal activity, IPOHE: Ipomoea hederacea; for Herbicidal activity, ORYSA: Orysa sativa; for Herbicidal activity, PANMI: Panicum miliaceum; for Herbicidal activity, SETFA: Setaria faberi; for Herbicidal activity, SIDSP: Sida spinosa; for Herbicidal activity, SORVU: Sorghum bicolour; for Herbicidal activity, XANST: Xanthium strumarium; for Herbicidal activity, ZEAMX: Zea mays
In short: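 Plants at 12 days post-sowing were sprayed with active ingredient formulated in IF50 plus 0.2% v/v Genapol XO80, then grown in a glasshouse (24/18 °C or 20/16 °C day/night, 16 h light, 65% humidity). Damage scored 15 days after application on 0–100 scale (100 = total kill).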

Lolium perenne (LOLPE) = assay: B1 Post-emergence efficacy Test 1; conditions: post-emergence application, 1000 g/ha, evaluated after 13 days
In short: (§1)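 Damage ratings on a 1–5 scale (5=80-100%, 4=60-79%, 3=40-59%, 2=20-39%, 1=0-19%) come from visual assessment 13 days after spraying. Plants were treated at 8 days post-sowing with 1000 g/ha in acetone/water (50:50) containing 0.5% Tween 20.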

[2] = tested on: Ipomoea hederacea (IPOHE); assay: B1 Post-emergence efficacy Test 1; conditions: post-emergence application, 1000 g/ha, evaluated after 13 days
In short: as §1

Setaria faberi (SETFA) = assay: B1 Post-emergence efficacy Test 1; conditions: post-emergence application, 1000 g/ha, evaluated after 13 days
In short: as §1

[3] = tested on: Echinochloa crus-galli (ECHCG); assay: B1 Post-emergence efficacy Test 1; conditions: post-emergence application, 1000 g/ha, evaluated after 13 days
In short: as §1

Solanum nigrum (SOLNI) = assay: B1 Post-emergence efficacy Test 1; conditions: post-emergence application, 1000 g/ha, evaluated after 13 days
In short: as §1

[4] = tested on: Amaranthus retoflexus (AMARE); assay: B1 Post-emergence efficacy Test 1; conditions: post-emergence application, 1000 g/ha, evaluated after 13 days
In short: as §1

## Cc1nn(C)c(=O)c(-c2c(F)ccc(Cl)c2CCc2ccccc2C(F)(F)F)c1O [Compound 1.066]
[1]; 15 g/Ha
  Herbicidal activity, ABUTH: 20
  Herbicidal activity, AMARE: 90
  Herbicidal activity, BIDPI: 50
  Herbicidal activity, BRAPL: 0
  Herbicidal activity, DIGSA: 0
  Herbicidal activity, ECHCG: 20
  Herbicidal activity, ELEIN: 0
  Herbicidal activity, EPHHL: 60
  Herbicidal activity, GLXMA: 20
  Herbicidal activity, IPOHE: 70
  Herbicidal activity, ORYSA: 0
  Herbicidal activity, PANMI: 0
  Herbicidal activity, SETFA: 0
  Herbicidal activity, SIDSP: 40
  Herbicidal activity, SORVU: 0
  Herbicidal activity, ZEAMX: 0
[1]; 30 g/Ha
  Herbicidal activity, ABUTH: 50
  Herbicidal activity, AMARE: 90
  Herbicidal activity, BIDPI: 60
  Herbicidal activity, BRAPL: 60
  Herbicidal activity, DIGSA: 20
  Herbicidal activity, ECHCG: 80
  Herbicidal activity, ELEIN: 20
  Herbicidal activity, EPHHL: 70
  Herbicidal activity, GLXMA: 40
  Herbicidal activity, IPOHE: 90
  Herbicidal activity, ORYSA: 0
  Herbicidal activity, PANMI: 50
  Herbicidal activity, SETFA: 70
  Herbicidal activity, SIDSP: 80
  Herbicidal activity, SORVU: 20
  Herbicidal activity, ZEAMX: 20
[1]; 60 g/Ha
  Herbicidal activity, ABUTH: 50
  Herbicidal activity, AMARE: 90
  Herbicidal activity, BIDPI: 70
  Herbicidal activity, DIGSA: 20
  Herbicidal activity, ECHCG: 90
  Herbicidal activity, ELEIN: 70
  Herbicidal activity, EPHHL: 80
  Herbicidal activity, GLXMA: 70
  Herbicidal activity, IPOHE: 90
  Herbicidal activity, ORYSA: 0
  Herbicidal activity, PANMI: 60
  Herbicidal activity, SETFA: 70
  Herbicidal activity, SIDSP: 80
  Herbicidal activity, SORVU: 60
  Herbicidal activity, XANST: 90
  Herbicidal activity, ZEAMX: 20
[1]; 125 g/Ha
  Herbicidal activity, ABUTH: 90
  Herbicidal activity, AMARE: 100
  Herbicidal activity, BIDPI: 80
  Herbicidal activity, BRAPL: 80
  Herbicidal activity, DIGSA: 40
  Herbicidal activity, ECHCG: 90
  Herbicidal activity, ELEIN: 70
  Herbicidal activity, EPHHL: 90
  Herbicidal activity, GLXMA: 70
  Herbicidal activity, IPOHE: 100
  Herbicidal activity, ORYSA: 10
  Herbicidal activity, PANMI: 80
  Herbicidal activity, SETFA: 80
  Herbicidal activity, SIDSP: 90
  Herbicidal activity, SORVU: 80
  Herbicidal activity, ZEAMX: 20
[1]; 250 g/Ha
  Herbicidal activity, ABUTH: 90
  Herbicidal activity, AMARE: 100
  Herbicidal activity, BIDPI: 90
  Herbicidal activity, BRAPL: 70
  Herbicidal activity, DIGSA: 70
  Herbicidal activity, ECHCG: 90
  Herbicidal activity, ELEIN: 70
  Herbicidal activity, EPHHL: 100
  Herbicidal activity, GLXMA: 90
  Herbicidal activity, IPOHE: 100
  Herbicidal activity, ORYSA: 20
  Herbicidal activity, PANMI: 100
  Herbicidal activity, SETFA: 90
  Herbicidal activity, SIDSP: 90
  Herbicidal activity, SORVU: 90
  Herbicidal activity, XANST: 100
  Herbicidal activity, ZEAMX: 30
[1]; 500 g/Ha
  Herbicidal activity, ABUTH: 100
  Herbicidal activity, AMARE: 100
  Herbicidal activity, BIDPI: 90
  Herbicidal activity, BRAPL: 100
  Herbicidal activity, DIGSA: 70
  Herbicidal activity, ECHCG: 90
  Herbicidal activity, ELEIN: 80
  Herbicidal activity, EPHHL: 100
  Herbicidal activity, GLXMA: 90
  Herbicidal activity, IPOHE: 100
  Herbicidal activity, ORYSA: 40
  Herbicidal activity, PANMI: 100
  Herbicidal activity, SETFA: 90
  Herbicidal activity, SIDSP: 100
  Herbicidal activity, SORVU: 100
  Herbicidal activity, XANST: 100
  Herbicidal activity, ZEAMX: 70
Lolium perenne (LOLPE)
  percentage damage caused to the plant, five point scale, LOLPE: 4 (4=60-79%)
[2]
  percentage damage caused to the plant, five point scale, IPOHE: 5 (5=80-100%)
Setaria faberi (SETFA)
  percentage damage caused to the plant, five point scale, SETFA: 5 (5=80-100%)
[3]
  percentage damage caused to the plant, five point scale, ECHCG: 5 (5=80-100%)
Solanum nigrum (SOLNI)
  percentage damage caused to the plant, five point scale, SOLNI: 5 (5=80-100%)
[4]
  percentage damage caused to the plant, five point scale, AMARE: 5 (5=80-100%)
